Data reported in patent US20240425502A1, “BICYCLIC HETEROAROMATIC COMPOUNDS AND THEIR USE AS PEST CONTROL AGENTS” (PI INDUSTRIES LTD., priority 2021, published 2024).

Legend:
Format in all cases: in vivo
[1] = system: Myzus persicae; assay: Myzus persicae leaf dip test (capsicum leaves, third instar nymphs); conditions: foliar, 72 h after release, dead and moribund combined, compared to untreated control, read-out: percent mortality
[2] = system: Bemisia tabaci; assay: Bemisia tabaci leaf dip test (brinjal leaves, whitefly adults); conditions: foliar, 72 h after release, dead and moribund combined, compared to untreated control, read-out: percent mortality
Description: The leaf dip method was used for testing, wherein the required quantity of the compound was weighed and dissolved in a tube containing a solvent solution. The tube was put on a vortex at 2000 rpm for 90 min for proper mixing and then the mixture was diluted with a 0.01% Triton-X solution to the desired test concentration. Brinjal leaves were dipped in the compound solution for 10 seconds, shade dried for 20 min and then placed, with the abaxial side of the leaf up, on 4 ml of a 1% agar-agar solution in respective container caps. Known numbers of freshly emerged whitefly adults were collected, using a modified aspirator, and released into a perforated container in which the cap containing the treated leaf was placed. The containers were kept in a plant growth chamber at a temperature of 25° C. and a relative humidity of 70%. Observations on dead, moribund and alive adults were recorded 72 h after the release. Percent mortality was calculated by combining dead and moribund adults and comparing the result to the one of the untreated control. The compounds 32 53 58 79 80 81 82 84 87 88 89 94 95 96 101 102 103 104 105 106 107 108 109 112 113 114 115 116 117 118 119 120 123 124 125 126 127 130 135 138 139 140 144 145 147 150 154 156 158 159 164 167 168 169 170 171 188 189 191 198 199 200 201 202 206 207 208 209 210 213 216 223 224 225 227 228 231 232 233 234 235 236 238 242 243 244 246 and 247 recorded≥70 percent mortality @ 300 PPM.

[3] = system: Nilaparvata lugens; assay: Nilaparvata lugens seedling dip test (paddy seedlings, third instar nymphs); conditions: 72 h after release, dead and moribund combined, compared to untreated control, read-out: percent mortality

Measured: mortality at 300 ppm

O=c1nc2n(Cc3cnc(Cl)nc3)cccc-2c(=O)n1-c1ccc(F)c(F)c1 [Compound 120, 8-((2-chloropyrimidin-5-yl)methyl)-3-(3,4-difluorophenyl)pyrido[2,3-d]pyrimidine-2,4(3H,8H)-dione]
≥ 70%: all assays above

O=c1nc2n(Cc3ccc(Cl)nc3)cccc-2c(=O)n1-c1cccc(OC(F)(F)F)c1 [Compound 123, 8-((6-chloropyridin-3-yl)methyl)-3-(3-(trifluoromethoxy)phenyl)pyrido[2,3-d]pyrimidine-2,4(3H,8H)-dione]
≥ 70%: all assays above

O=c1nc2n(Cc3cnc(Cl)nc3)cccc-2c(=O)n1-c1cc(F)cc(F)c1 [Compound 140, 8-((2-chloropyrimidin-5-yl)methyl)-3-(3,5-difluorophenyl)pyrido[2,3-d]pyrimidine-2,4(3H,8H)-dione]
≥ 70%: all assays above

O=c1nc2n(Cc3cnc(Cl)s3)cccc-2c(=O)n1-c1cccc(OC(F)(F)F)c1 [Compound 150, 8-((2-chlorothiazol-5-yl)methyl)-3-(3-(trifluoromethoxy)phenyl)pyrido[2,3-d]pyrimidine-2,4(3H,8H)-dione]
≥ 70%: all assays above

O=c1nc2n(Cc3cnc(Cl)nc3)cccc-2c(=O)n1-c1ccc(F)c(Cl)c1 [Compound 154, 3-(3-chloro-4-fluorophenyl)-8-((2-chloropyrimidin-5-yl)methyl)pyrido[2,3-d]pyrimidine-2,4(3H,8H)-dione]
≥ 70%: all assays above

O=c1nc2n(Cc3cnc(Cl)nc3)cccc-2c(=O)n1-c1ccc(Br)cc1 [Compound 159, 3-(4-bromophenyl)-8-((2-chloropyrimidin-5-yl)methyl)pyrido[2,3-d]pyrimidine-2,4(3H,8H)-dione]
≥ 70%: all assays above

O=c1nc2n(Cc3cnc(Cl)nc3)cccc-2c(=O)n1-c1ccc2c(c1)OC(F)(F)O2 [Compound 198, 8-((2-chloropyrimidin-5-yl)methyl)-3-(2,2-difluorobenzo[d][1,3]dioxol-5-yl)pyrido[2,3-d]pyrimidine-2,4(3H,8H)-dione]
≥ 70%: all assays above

O=c1nc2n(Cc3ccc(Cl)nc3)cccc-2c(=O)n1-c1ccc2c(c1)OC(F)(F)O2 [Compound 199, 8-((6-chloropyridin-3-yl)methyl)-3-(2,2-difluorobenzo[d][1,3]dioxol-5-yl)pyrido[2,3-d]pyrimidine-2,4(3H,8H)-dione]
≥ 70%: all assays above

O=c1nc2n(Cc3cnc(Cl)nc3)cccc-2c(=O)n1-c1cc(Cl)cc(Cl)c1 [Compound 201, 8-((2-chloropyrimidin-5-yl)methyl)-3-(3,5-dichlorophenyl)pyrido[2,3-d]pyrimidine-2,4(3H,8H)-dione]
≥ 70%: all assays above

O=c1nc2n(Cc3cnc(Cl)nc3)cccc-2c(=O)n1-c1ccc(F)cc1F [Compound 207, 8-((2-chloropyrimidin-5-yl)methyl)-3-(2,4-difluorophenyl)pyrido[2,3-d]pyrimidine-2,4(3H,8H)-dione]
≥ 70%: all assays above

O=c1nc2n(Cc3cnc(Cl)nc3)cccc-2c(=O)n1-c1ccc(Cl)c(F)c1 [Compound 208, 3-(4-chloro-3-fluorophenyl)-8-((2-chloropyrimidin-5-yl)methyl)pyrido[2,3-d]pyrimidine-2,4(3H,8H)-dione]
≥ 70%: all assays above

O=c1c2cccn(Cc3cnc(Cl)nc3)c-2nc(=S)n1-c1ccc(Cl)cc1 [Compound 210, 3-(4-chlorophenyl)-8-((2-chloropyrimidin-5-yl)methyl)-2-thioxo-2,8-dihydropyrido[2,3-d]pyrimidin-4(3H)-one]
≥ 70%: all assays above

O=c1nc2n(Cc3cnc(Cl)nc3)cccc-2c(=O)n1-c1ccc(F)c(C(F)(F)F)c1 [Compound 213, 8-((2-chloropyrimidin-5-yl)methyl)-3-(4-fluoro-3-(trifluoromethyl)phenyl)pyrido[2,3-d]pyrimidine-2,4(3H,8H)-dione]
≥ 70%: all assays above

O=c1nc2n(Cc3cnc(Cl)nc3)cccc-2c(=O)n1-c1ccc(OCC(F)(F)F)cc1 [Compound 216, 8-((2-chloropyrimidin-5-yl)methyl)-3-(4-(2,2,2-trifluoroethoxy)phenyl)pyrido[2,3-d]pyrimidine-2,4(3H,8H)-dione]
≥ 70%: all assays above

O=c1nc2n(Cc3ccc(Cl)nc3)cccc-2c(=O)n1-c1ccc(OCC(F)(F)F)cc1 [Compound 223, 8-((6-chloropyridin-3-yl)methyl)-3-(4-(2,2,2-trifluoroethoxy)phenyl)pyrido[2,3-d]pyrimidine-2,4(3H,8H)-dione]
≥ 70%: all assays above

O=c1nc2n(Cc3cnc(Cl)nc3)cccc-2c(=O)n1-c1ccc(F)cc1Cl [Compound 225, 3-(2-chloro-4-fluorophenyl)-8-((2-chloropyrimidin-5-yl)methyl)pyrido[2,3-d]pyrimidine-2,4(3H,8H)-dione]
≥ 70%: all assays above

O=c1nc2n(Cc3cnc(Cl)nc3)cccc-2c(=O)n1-c1cccc(Br)c1 [Compound 231, 3-(3-bromophenyl)-8-((2-chloropyrimidin-5-yl)methyl)pyrido[2,3-d]pyrimidine-2,4(3H,8H)-dione]
≥ 70%: all assays above

O=c1nc2n(Cc3cnc(Cl)nc3)cccc-2c(=O)n1-c1ccc(F)c(Br)c1 [Compound 234, 3-(3-bromo-4-fluorophenyl)-8-((2-chloropyrimidin-5-yl)methyl)pyrido[2,3-d]pyrimidine-2,4(3H,8H)-dione]
≥ 70%: all assays above

O=c1nc2n(Cc3cnc(Cl)nc3)cccc-2c(=O)n1-c1ccc(Br)c(F)c1 [Compound 235, 3-(4-bromo-3-fluorophenyl)-8-((2-chloropyrimidin-5-yl)methyl)pyrido[2,3-d]pyrimidine-2,4(3H,8H)-dione]
≥ 70%: all assays above

O=c1nc2n(Cc3cnc(Cl)s3)cccc-2c(=O)n1-c1ccc(F)c(C(F)(F)F)c1 [Compound 242, 8-((2-chlorothiazol-5-yl)methyl)-3-(4-fluoro-3-(trifluoromethyl)phenyl)pyrido[2,3-d]pyrimidine-2,4(3H,8H)-dione]
≥ 70%: all assays above

O=c1nc2n(Cc3cnc(Cl)s3)cccc-2c(=O)n1-c1ccc(OCC(F)(F)F)cc1 [Compound 243, 8-((2-chlorothiazol-5-yl)methyl)-3-(4-(2,2,2-trifluoroethoxy)phenyl)pyrido[2,3-d]pyrimidine-2,4(3H,8H)-dione]
≥ 70%: all assays above

O=c1nc2n(Cc3cnc(Cl)nc3)cccc-2c(=O)n1-c1cc(F)cc(C(F)(F)F)c1 [Compound 244, 8-((2-chloropyrimidin-5-yl)methyl)-3-(3-fluoro-5-(trifluoromethyl)phenyl)pyrido[2,3-d]pyrimidine-2,4(3H,8H)-dione]
≥ 70%: all assays above

O=c1nc2n(Cc3ccc(Cl)nc3)cccc-2c(=O)n1-c1cccc(SC(F)(F)F)c1 [Compound 246, 8-((6-chloropyridin-3-yl)methyl)-3-(3-((trifluoromethyl)thio)phenyl)pyrido[2,3-d]pyrimidine-2,4(3H,8H)-dione]
≥ 70%: all assays above

O=c1nc2n(Cc3cnc(Cl)s3)cccc-2c(=O)n1-c1ccc2c(c1)OC(F)(F)O2 [Compound 247, 8-((2-chlorothiazol-5-yl)methyl)-3-(2,2-difluorobenzo[d][1,3]dioxol-5-yl)pyrido[2,3-d]pyrimidine-2,4(3H,8H)-dione]
≥ 70%: all assays above
